Measured values reported in patent US20260317324A1, “BIFUNCTIONAL COMPOUNDS FOR DEGRADING BRAF VIA UBIQUITIN PROTEOSOME PATHWAY” (Nurix Therapeutics, Inc., priority 2023, published 2026).

Key:
Type in all cases: cell-based
BRAF V600E = target: T1, BRAF V600E (Homo sapiens, UniProt P15056, V600E); assay: BRAF HiBiT degradation assay, C-terminal HiBiT-tagged BRAF V600E A375 cells (clone 1F10), Nano-Glo HiBiT Lytic assay; details: A375 (BRAF V600E, Class 1); for DC50: DC50 at 50% degradation; for Dmax: A-375, observed Dmax, % protein degraded relative to DMSO control
T1 construct: endogenous C-terminal HiBiT fusion tag on BRAF V600E allele; endogenous in cells; host or cells: A375 clone 1F10 (CRISPR-Cas9 knock-in of the HiBiT tag; parental A375 from ATCC)
Outline: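 Using CRISPR-engineered A375 cells that carry a C-terminal HiBiT tag on endogenous BRAF V600E, remaining protein was quantified by lytic luminescence relative to DMSO-treated cells, with wildtype A375 as the background control. DC50 denotes the concentration giving 50% degradation.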

BRAF D594G = target: T2, BRAF D594G (Homo sapiens, UniProt P15056, D594G); assay: BRAF HiBiT degradation assay, C-terminal HiBiT-tagged BRAF D594G overexpressed in HCT-116 BRAF−/− cells (clone 63), Nano-Glo HiBiT Lytic assay; details: BRAF D594G (Class 3), HCT-116 BRAF−/− cells; for DC50: DC50 at 50% degradation; for Dmax: observed Dmax relative to DMSO control
T2 construct: Horizon Discovery (HCT-116 BRAF−/− cells); host or cells: HCT-116 BRAF−/− cells, clone 63, lentiviral transduction
Outline: (§1)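 Degradation assay in HCT-116 BRAF−/− cells carrying lentiviral HiBiT-tagged mutant BRAF. The readout is % protein remaining across 1 μM to 0.01 nM compound, and DC50 marks 50% remaining.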

BRAF G466V = target: T3, BRAF G466V (Homo sapiens, UniProt P15056, G466V); assay: BRAF HiBiT degradation assay, C-terminal HiBiT-tagged BRAF G466V overexpressed in HCT-116 BRAF−/− cells (clone 8), Nano-Glo HiBiT Lytic assay; details: BRAF G466V (Class 3), HCT-116 BRAF−/− cells; for DC50: DC50 at 50% degradation; for Dmax: observed Dmax relative to DMSO control
T3 construct: Horizon Discovery (HCT-116 BRAF−/− cells); host or cells: HCT-116 BRAF−/− cells, clone 8, lentiviral transduction
Outline: as §1

BRAF G469A = target: T4, BRAF G469A (Homo sapiens, UniProt P15056, G469A); assay: BRAF HiBiT degradation assay, C-terminal HiBiT-tagged BRAF G469A overexpressed in HCT-116 BRAF−/− cells (clone 34), Nano-Glo HiBiT Lytic assay; details: BRAF G469A (Class 2), HCT-116 BRAF−/− cells; for DC50: DC50 at 50% degradation; for Dmax: observed Dmax relative to DMSO control
T4 construct: Horizon Discovery (HCT-116 BRAF−/− cells); host or cells: HCT-116 BRAF−/− cells, clone 34, lentiviral transduction
Outline: as §1

T2 sequence (P15056 whole entry D594G): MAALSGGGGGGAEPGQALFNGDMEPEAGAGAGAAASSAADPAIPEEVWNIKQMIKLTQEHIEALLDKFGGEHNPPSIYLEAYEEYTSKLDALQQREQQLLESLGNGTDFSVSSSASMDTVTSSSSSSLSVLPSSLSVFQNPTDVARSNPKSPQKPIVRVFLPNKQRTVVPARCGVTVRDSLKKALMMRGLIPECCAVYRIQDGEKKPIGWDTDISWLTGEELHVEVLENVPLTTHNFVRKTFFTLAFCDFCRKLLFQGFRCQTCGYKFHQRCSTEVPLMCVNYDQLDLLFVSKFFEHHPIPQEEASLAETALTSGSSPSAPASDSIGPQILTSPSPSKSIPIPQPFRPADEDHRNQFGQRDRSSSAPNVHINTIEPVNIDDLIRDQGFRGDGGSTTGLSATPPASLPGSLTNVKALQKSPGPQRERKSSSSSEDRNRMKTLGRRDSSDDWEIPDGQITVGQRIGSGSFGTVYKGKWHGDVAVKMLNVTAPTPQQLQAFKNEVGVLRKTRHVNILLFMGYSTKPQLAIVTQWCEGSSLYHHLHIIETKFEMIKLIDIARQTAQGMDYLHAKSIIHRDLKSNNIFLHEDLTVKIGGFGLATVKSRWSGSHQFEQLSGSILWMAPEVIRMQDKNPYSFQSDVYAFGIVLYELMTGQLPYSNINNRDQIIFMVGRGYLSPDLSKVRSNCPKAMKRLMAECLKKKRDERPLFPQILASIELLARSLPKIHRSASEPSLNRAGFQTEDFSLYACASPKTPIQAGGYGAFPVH
T4 sequence (P15056 whole entry G469A): as the sequence (P15056 whole entry D594G) above, with G469A, G594D counted along it
T1 sequence (P15056 whole entry V600E, the tested form may be a part): as the sequence (P15056 whole entry D594G) above, with G594D, V600E counted along it
T3 sequence (P15056 whole entry G466V): as the sequence (P15056 whole entry D594G) above, with G466V, G594D counted along it

Row | DC50 (BRAF V600E) [nM] | Dmax (BRAF V600E) [%] | DC50 (BRAF D594G) [nM] | Dmax (BRAF D594G) [%] | DC50 (BRAF G466V) [nM] | Dmax (BRAF G466V) [%] | DC50 (BRAF G469A) [nM] | Dmax (BRAF G469A) [%] | Structure (SMILES)
1 | < 10 | > 70 | < 10 | 30 to 70 | < 10 | 30 to 70 | 10 to 50 | 30 to 70 | O=C1CCN(c2ccc(N3CCC(CN4CCN(c5ccc(-n6cc(-c7cc(Cl)cc(NS(=O)(=O)N8CC(F)C8)c7F)c(-c7ccncc7)n6)cc5)CC4)CC3)nc2)C(=O)N1 [Compound 368, N-[5-chloro-3-(1-{4-[4-({1-[5-(2,4-dioxo-1,3-diazinan-1-yl)pyridin-2-yl]piperidin-4-yl}methyl)piperazin-1-yl]phenyl}-3-(pyridin-4-yl)-1H-pyrazol-4-yl)-2-fluorophenyl]-3-fluoroazetidine-1-sulfonamide]
2 | < 10 | > 70 | < 10 | 30 to 70 | 10 to 50 | 30 to 70 | < 10 | 30 to 70 | O=C1CCN(c2ccc(N3CCC(CN4CCN(c5ccc(-n6cc(-c7cc(Cl)cc(NS(=O)(=O)N8CC(F)C8)c7F)c(-c7ccncc7)n6)c(F)c5)CC4)CC3)nc2)C(=O)N1 [Compound 369, N-[5-chloro-3-(1-{4-[4-({1-[5-(2,4-dioxo-1,3-diazinan-1-yl)pyridin-2-yl]piperidin-4-yl}methyl)piperazin-1-yl]-2-fluorophenyl}-3-(pyridin-4-yl)-1H-pyrazol-4-yl)-2-fluorophenyl]-3-fluoroazetidine-1-sulfonamide]
3 | < 10 | > 70 | < 10 | 30 to 70 | < 10 | 30 to 70 | > 500 | 30 to 70 | O=C1CCN(c2ccc(N3CCC(CN4CCN(c5ccc(-n6cc(-c7cc(Cl)cc(NS(=O)(=O)N8CCCC8)c7F)c(-c7ccncc7)n6)c(F)c5)CC4)CC3)nc2)C(=O)N1 [Compound 370, N-[5-chloro-3-(1-{4-[4-({1-[5-(2,4-dioxo-1,3-diazinan-1-yl)pyridin-2-yl]piperidin-4-yl}methyl)piperazin-1-yl]-2-fluorophenyl}-3-(pyridin-4-yl)-1H-pyrazol-4-yl)-2-fluorophenyl]pyrrolidine-1-sulfonamide]
4 | < 10 | > 70 | < 10 | 30 to 70 | < 10 | 30 to 70 | < 10 | 30 to 70 | O=C1CCN(c2ccc(N3CCC(CN4CCN(c5ccc(-n6cc(-c7cc(Cl)cc(NS(=O)(=O)N8CC[C@@H](F)C8)c7F)c(-c7ccncc7)n6)c(F)c5)CC4)CC3)nc2)C(=O)N1 [Compound 371, (3R)—N-[5-chloro-3-(1-{4-[4-({1-[5-(2,4-dioxo-1,3-diazinan-1-yl)pyridin-2-yl]piperidin-4-yl}methyl)piperazin-1-yl]-2-fluorophenyl}-3-(pyridin-4-yl)-1H-pyrazol-4-yl)-2-fluorophenyl]-3-fluoropyrrolidine-1-sulfonamide]
5 | < 10 | > 70 | < 10 | > 70 | 10 to 50 | > 70 | 10 to 50 | > 70 | O=C1CC[C@H](c2ccc(N3CCC(CN4CCN(c5ccc(-n6cc(-c7cc(Cl)cc(NS(=O)(=O)C8CCCC8)c7F)c(-c7ccncc7)n6)cc5)CC4)CC3)nc2)C(=O)N1 [Compound 372, N-{5-chloro-3-[1-(4-{4-[(1-{5-[(3R)-2,6-dioxopiperidin-3-yl]pyridin-2-yl}piperidin-4-yl)methyl]piperazin-1-yl}phenyl)-3-(pyridin-4-yl)-1H-pyrazol-4-yl]-2-fluorophenyl}cyclopentanesulfonamide]
6 | < 10 | > 70 | 10 to 50 | 30 to 70 | 10 to 50 | > 70 | 10 to 50 | 30 to 70 | O=C1CC[C@H](c2ccc(N3CCC(CN4CCN(c5ccc(-n6cc(-c7cc(Cl)cc(NS(=O)(=O)C8CCCC8)c7F)c(-c7ccncc7)n6)cc5)CC4)CC3)cc2)C(=O)N1 [Compound 374, N-{5-chloro-3-[1-(4-{4-[(1-{4-[(3R)-2,6-dioxopiperidin-3-yl]phenyl}piperidin-4-yl)methyl]piperazin-1-yl}phenyl)-3-(pyridin-4-yl)-1H-pyrazol-4-yl]-2-fluorophenyl}cyclopentanesulfonamide]
7 | < 10 | > 70 | < 10 | > 70 | < 10 | > 70 | 10 to 50 | > 70 | CCN(C)S(=O)(=O)Nc1cc(F)cc(-c2cn(-c3ccc(N4CCN(CC5CCN(c6ccc([C@H]7CCC(=O)NC7=O)cn6)CC5)CC4)cc3)nc2-c2ccncc2)c1F [Compound 375, (3R)-3-(6-{4-[(4-{4-[4-(3-{[ethyl(methyl)sulfamoyl]amino}-2,5-difluorophenyl)-3-(pyridin-4-yl)-1H-pyrazol-1-yl]phenyl}piperazin-1-yl)methyl]piperidin-1-yl}pyridin-3-yl)piperidine-2,6-dione]
8 | 10 to 50 | > 70 | 10 to 50 | 30 to 70 | 10 to 50 | > 70 | < 10 | 30 to 70 | CCN(C)S(=O)(=O)Nc1cc(F)cc(-c2cn(-c3ccc(N4CCN(CC5CCN(c6ccc([C@H]7CCC(=O)NC7=O)cc6)CC5)CC4)cc3)nc2-c2ccncc2)c1F [Compound 377, (3R)-3-(4-{4-[(4-{4-[4-(3-{[ethyl(methyl)sulfamoyl]amino}-2,5-difluorophenyl)-3-(pyridin-4-yl)-1H-pyrazol-1-yl]phenyl}piperazin-1-yl)methyl]piperidin-1-yl}phenyl)piperidine-2,6-dione]
9 | 10 to 50 | > 70 | > 500 | 30 to 70 | 10 to 50 | 30 to 70 | > 500 | 30 to 70 | CCCS(=O)(=O)Nc1cccc(-c2cn(-c3ccc(N4CCN(CC5CCN(c6ccc([C@H]7CCC(=O)NC7=O)cc6)CC5)[C@H](C)C4)cc3)nc2-c2ccncc2)c1F [Compound 378, N-[3-(1-{4-[(3R)-4-[(1-{4-[(3R)-2,6-dioxopiperidin-3-yl]phenyl}piperidin-4-yl)methyl]-3-methylpiperazin-1-yl]phenyl}-3-(pyridin-4-yl)-1H-pyrazol-4-yl)-2-fluorophenyl]propane-1-sulfonamide]
10 | 50 to 500 | > 70 | 50 to 500 | 30 to 70 | 50 to 500 | 30 to 70 | > 500 | 30 to 70 | CCN(C)S(=O)(=O)Nc1cccc(-c2cn(-c3ccc(N4CCN(CC5CCN(c6ccc([C@H]7CCC(=O)NC7=O)cn6)CC5)CC4)cc3F)nc2-c2ccncc2)c1F [Compound 379, (3R)-3-(6-{4-[(4-{4-[4-(3-{[ethyl(methyl)sulfamoyl]amino}-2-fluorophenyl)-3-(pyridin-4-yl)-1H-pyrazol-1-yl]-3-fluorophenyl}piperazin-1-yl)methyl]piperidin-1-yl}pyridin-3-yl)piperidine-2,6-dione]
